# Test results taken from article PMC10392058 (FEBS Open Bio, 2023).
# Tests used:
# BCRP = molecular target: T1, BCRP (Homo sapiens, UniProt Q9UNQ0); experiment: MDCKII bidirectional permeability, BCRP expressing cells; conditions: dog
# T1 sequence (Q9UNQ0 1-655): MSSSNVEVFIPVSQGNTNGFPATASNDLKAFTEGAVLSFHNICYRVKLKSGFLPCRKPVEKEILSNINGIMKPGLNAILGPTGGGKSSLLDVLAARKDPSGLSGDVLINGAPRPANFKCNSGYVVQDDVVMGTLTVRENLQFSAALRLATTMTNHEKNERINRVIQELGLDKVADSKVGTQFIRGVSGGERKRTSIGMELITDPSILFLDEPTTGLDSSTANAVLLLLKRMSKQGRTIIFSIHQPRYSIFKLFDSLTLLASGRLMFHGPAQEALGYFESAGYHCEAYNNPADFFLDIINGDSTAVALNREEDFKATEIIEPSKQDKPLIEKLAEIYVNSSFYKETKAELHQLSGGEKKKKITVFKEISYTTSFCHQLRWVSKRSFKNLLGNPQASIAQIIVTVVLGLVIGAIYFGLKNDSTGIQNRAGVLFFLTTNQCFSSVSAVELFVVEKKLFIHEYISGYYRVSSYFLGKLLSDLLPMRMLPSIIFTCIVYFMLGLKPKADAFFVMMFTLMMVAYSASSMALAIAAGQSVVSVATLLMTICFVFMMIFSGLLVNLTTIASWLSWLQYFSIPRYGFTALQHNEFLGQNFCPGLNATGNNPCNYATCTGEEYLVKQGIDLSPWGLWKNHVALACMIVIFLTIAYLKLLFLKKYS
# [1] = MDCKII bidirectional permeability, mock transfected cells; type: in vitro ADME; conditions: dog, MDCK
# HXA3 release = system: HXA3 release; design: method as in PMID 19017997; conditions: 100 μM; cited from earlier work
# [2] = system: HXA3/MRP2‐driven neutrophil epithelial transmigration; experiment: HXA3/MRP2‐driven neutrophil transmigration assay (S. typhimurium‐stimulated T84 monolayer, MPO readout); type: cell-based, human; conditions: 100 μM probenecid (positive control); P = 0.0008
# Description: As described under Materials and Methods, in the neutrophil transmigration assay, a polarized human intestinal cell line monolayer was grown on a transwell insert to mimic the intestinal epithelial barrier. The cells were then apically stimulated by the addition of pathogenic Salmonella typhimurium, eliciting HXA3 efflux via MRP2 into the apical side of the chamber. Fresh, unstimulated human neutrophils were added to the basolateral side of the monolayer, where they detected the HXA3 gradient and migrated through the epithelial monolayer to the apical side. They were then quantified by assay of myeloperoxidase (MPO), a neutrophil biomarker.
# Following stimulation via pathogenic S. typhimurium to elicit HXA3 efflux, migration of fresh human neutrophils from the basolateral side of the polarized monolayer (in response to the HXA3 gradient) to the apical side was quantified by MPO activity assay. […]
# In the neutrophil transmigration assay (a modified Boyden chamber assay), a polarized T84 human intestinal cell line monolayer was grown on a Transwell insert to mimic the intestinal epithelial barrier. […] Fresh human neutrophils, added to the basolateral side of the monolayer, detected the HXA3 gradient and migrated through the epithelial monolayer to the apical side, where they were quantified by assay of MPO activity, a neutrophil biomarker [47].
# MDCKII‐BCRP‐LV cells = molecular target: T2, MDCKII‐BCRP‐LV cells (Homo sapiens, UniProt Q9UNQ0); experiment: MDCKII bidirectional permeability, BCRP expressing cells
# T2 sequence (Q9UNQ0 1-655): T1 sequence (Q9UNQ0 1-655)
# MDCKII‐mock‐LV cells = experiment: MDCKII bidirectional permeability, mock transfected cells; type: in vitro ADME
compound,measurement,setting,value
COc1cc2nc(N3CCN(C(=O)c4ccco4)CC3)nc(N)c2cc1OC [Prazosin],Papp A→B at 1 μM,BCRP,3.02 ± 0.84 ×10⁻⁶ cm/s
same,Papp B→A at 1 μM,BCRP,53.1 ± 8.15 ×10⁻⁶ cm/s
same,Papp A→B at 1 μM,[1],14.7 ± 13.3 ×10⁻⁶ cm/s
CCCN(CCC)S(=O)(=O)c1ccc(C(=O)O)cc1 [probenecid],inhibition of HXA3 release,HXA3 release,effectively inhibits HXA3 release
same,neutrophil migration inhibition,[2],extremely significant
Lucifer yellow [LY],Papp A‐B,MDCKII‐BCRP‐LV cells; LY 40 μg mL^−1,0.06 ± 0.01 × 10^−6 cm·s^−1
same,Papp A‐B,MDCKII‐BCRP‐LV cells; LY 40 μg mL^−1 + ADS051 14 mg mL^−1 (TA applied apically),0.21 ± 0.02 × 10^−6 cm·s^−1
same,Papp A‐B,MDCKII‐BCRP‐LV cells; LY 40 μg mL^−1 + ADS051 14 mg mL^−1 (TA applied basolaterally),0.19 ± 0.01 × 10^−6 cm·s^−1
same,Papp A‐B,MDCKII‐mock‐LV cells; LY 40 μg·mL^−1,0.20 ± 0.03 × 10^−6 cm·s^−1
same,Papp A‐B,MDCKII‐mock‐LV cells; LY 40 μg·mL^−1 + ADS051 14 mg·mL^−1 (TA applied apically),0.32 ± 0.09 × 10^−6 cm·s^−1
same,Papp A‐B,MDCKII‐mock‐LV cells; LY 40 μg·mL^−1 + ADS051 14 mg·mL^−1 (TA applied basolaterally),0.46 ± 0.09 × 10^−6 cm·s^−1
